Values quoted from earlier work in US20110142757A1, “NOVEL COMPOUNDS AND THEIR USES IN DIAGNOSIS” (the University of Sydney, priority 2008, published 2011).

Test system: activated microglia
Conditions: quinolinic acid-injected rat striatum

CCC(C)N(C)C(=O)c1cc2ccccc2c(-c2ccccc2Cl)n1 (stereo not shown) [PK11195]
Microglial activation and neuronal death: reduces microglial activation and neuronal death
